Patent publication US5451601A, “Perhydroisoindole derivatives and pharmaceutical compositions containing them” (Rhone-Poulenc Rorer S.A., priority 1991, dated 1995)

What was measured:
Type in all cases: in vivo
[1] = analgesic activity, technique of Siegmund E. et al.; conditions: po
Text: Exp. Biol. Med., 95, 729 (1957).

[2] = test system: septide (agonist of substance P); experiment: inhibition of the increase in capillary permeability brought about by septide, technique of A. Saria et al. adapted to mice; conditions: Mus musculus, sc, septide-induced increase in capillary permeability
Text: The study of a number of isoindole derivatives of general formula (I) according to the technique of A. Saria et al., Arch.

[3] = test system: substance P; experiment: antagonism of the hypotension induced by substance P, technique of C. A. Maggi et al.; conditions: rats; product 1 mg/kg i.v./min for 5 min; hypotension induced by i.v. injection of substance P
Text: Injection of substance P into animals produces hypotension. The products studied in the technique of C. A. Maggi et al., J. Auton.

SMILES	ED50 [1] [mg/kg]	ED50 [2] [mg/kg]	% inhibition of hypotension [3] [%]
CN(C)CCCOc1ccccc1CC(=O)N1C[C@@H]2[C@H](F)CCC(c3ccccc3)(c3ccccc3)[C@@H]2C1.Cl [Example 1, (3aR,7R,7aR)-2-{[2-(3-dimethylaminopropoxy)phenyl]acetyl}-4,4-diphenyl-7-fluoroperhydroisoindole hydrochloride]	3	0.7	73
COc1ccccc1[C@H](C)C(=O)N1C[C@@H]2[C@H](F)CCC(c3ccccc3)(c3ccccc3)[C@@H]2C1 [Example 7, (3aR,7R,7aR)-4,4-diphenyl-7-fluoro-2-[(S)-2-(2-methoxyphenyl)propionyl]perhydroisoindole]	1.5	0.32	
O=C(Cc1ccccc1OCCCN1CCCC1)N1C[C@@H]2[C@H](F)CCC(c3ccccc3)(c3ccccc3)[C@@H]2C1 [Example 2]	2	0.3	68
